Reference: patent publication US20210130316A1, “MORPHINAN DERIVATIVES AND COMPOSITIONS COMPRISING THE SAME FOR TREATING AUTOIMMUNE, IN[…] INFECTION RELATED DISORDERS” (TAIWANJ PHARMACEUTICALS CO., LTD, priority 2017, published 2021)

Key:
HEK293 cells = assay: Cell viability assay (MTT method); format: cell-based; details: compound 20 μM, percentage of viable LPS-stimulated cells
Experimental: HEK 293 cells (2.5-5.0×10^4 cells/well) were seeded in 96-well plate for overnight and treated with different compounds for 16-24 hours. Cell growth was determined by MTh-based colorimetric assays. Viability of the test cells treated with vehicle (0.5% DMSO) only was defined as 100% viable. Survival of cells after treatment with DETDs was calculated using the following formula:
Viable cell number (%)=OD570 (treated cell culture)/OD570 (vehicle control)×100.
The ell viability assay was performed by the MTT method. Cells were incubated with 45 μl of 5 mg/ml MTT for 1 hour at 37° C., and 150 μl of DMSO was added at the end of culture to dissolve the crystals. The signals of individual samples in 96-well plates were detected at O.D.570 nm with Molecular Device SpectraMax Imaging Cytometer. Cell viability was expressed in percentage of viable LPS-stimulated cells.

[1] = molecular target: T1, Toll-like receptor 4 (TLR4) (Homo sapiens, UniProt O00206+Q9Y6Y9); assay: NF-κB-inducible SEAP reporter assay of LPS-stimulated TLR4 activity in TLR4-expressing HEK293 cells; format: cell-based; details: for TLR-4 antagonist activity in words (summary of Table 3): 20 μM; for inhibition at 20 µM: compound 20 μM, LPS 10 ng/ml, 16-24 hours incubation, TLR4-expressing HEK293 cells, read-out: TLR-4 inhibition (%) Average
T1 construct: expressed in transfected cells; host or cells: HEK293
T1 sequence (O00206 24-839, species assumed): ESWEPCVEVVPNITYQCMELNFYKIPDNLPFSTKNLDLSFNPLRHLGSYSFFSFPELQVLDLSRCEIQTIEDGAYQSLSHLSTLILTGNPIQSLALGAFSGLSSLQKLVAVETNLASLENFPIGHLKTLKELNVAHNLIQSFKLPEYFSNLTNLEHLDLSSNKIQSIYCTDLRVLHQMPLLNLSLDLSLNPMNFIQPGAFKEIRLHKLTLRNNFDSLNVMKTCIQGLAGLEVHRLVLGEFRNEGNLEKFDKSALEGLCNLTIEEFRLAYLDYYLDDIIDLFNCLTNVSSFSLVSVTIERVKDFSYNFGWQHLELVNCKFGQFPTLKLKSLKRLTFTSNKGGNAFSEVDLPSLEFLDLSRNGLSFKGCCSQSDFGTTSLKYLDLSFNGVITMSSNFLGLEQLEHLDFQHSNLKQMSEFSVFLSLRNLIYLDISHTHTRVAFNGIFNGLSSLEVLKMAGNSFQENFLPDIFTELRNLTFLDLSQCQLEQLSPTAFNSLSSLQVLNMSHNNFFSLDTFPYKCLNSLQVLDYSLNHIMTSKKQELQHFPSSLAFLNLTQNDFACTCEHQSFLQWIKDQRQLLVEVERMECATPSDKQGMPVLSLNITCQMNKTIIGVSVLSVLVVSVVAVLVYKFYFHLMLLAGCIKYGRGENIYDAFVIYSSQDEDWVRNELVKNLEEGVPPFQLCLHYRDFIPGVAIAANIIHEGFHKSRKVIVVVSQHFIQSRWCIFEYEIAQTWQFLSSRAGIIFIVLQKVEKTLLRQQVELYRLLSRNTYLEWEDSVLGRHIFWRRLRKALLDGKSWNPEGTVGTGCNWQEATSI
T1 sequence (Q9Y6Y9 17-160 limits assumed, species assumed): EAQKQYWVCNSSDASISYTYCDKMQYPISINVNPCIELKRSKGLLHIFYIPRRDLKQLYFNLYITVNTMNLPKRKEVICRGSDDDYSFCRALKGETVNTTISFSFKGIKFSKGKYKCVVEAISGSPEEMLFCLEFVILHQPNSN
Experimental: Stimulation of the Toll-like receptor 4 (TLR4) was determined by assessing activation of the transcription factor NF-κB in HEK293 cells that were engineered to express TLR4. Assessment of TLR4 stimulation was based on the use of an NF-κB-inducible secreted alkaline phosphatase (SEAP) reporter system in which the SEAP reporter was under the control of a promoter inducible by NF-κB. Thus, the degree of activation of TLR4 can be indirectly quantified spectrophotometrically by measuring the amount of the SEAP reporter that is produced.
The TLR4-expressing cells were plated in HEK-Blue Detection (Invivogen, San Diego, Calif.) medium in a 96-well plate (25,000-50,000 cells/well). The cells were stimulated with lipopolysaccharides (LPS) alone or in combination with the compound of example 1. Cell culture without LPS and the compound of example 1 was defined as baseline control. To test whether the compound of example 1 could block that activation of the TLR4, the cells were treated with the compound of example 1 (20 μM) and LPS (final conc. 10 ng/ml/well). After a16-24 hours incubation period at 37° C. in a CO2 incubator, The signals of individual samples in 96-well plates were detected at O.D.650 nm with a Molecular Devices SpectraMax i3 Imaging Cytometer. The TLR4 activity was expressed in percentage of LPS alone-stimulated cells minus baseline control.

SMILES | Cell viability (%) Average (HEK293 cells) [%] | TLR-4 antagonist activity in words (summary of Table 3) [1] | inhibition at 20 µM [1] [%]
O=[N+]([O-])c1ccc(N2CC[C@@]34CCCC[C@@H]3[C@@H]2Cc2ccc(O)cc24)cc1 [Compound 3] | 82.1 | weak to negligible activity towards TLR-4 | 0
Nc1ccc(N2CC[C@@]34CCCC[C@@H]3[C@@H]2Cc2ccc(O)cc24)cc1 [Compound 4] | 92.2 | strong antagonists of TLR-4 | 90.5
COc1ccc2c(c1)[C@]13CCCC[C@@H]1[C@H](C2)N(c1ccc([N+](=O)[O-])c(N)c1)CC3 [Compound 5] | 110.9 | weak to negligible activity towards TLR-4 | 13.2
COc1ccc2c(c1)[C@]13CCCC[C@@H]1[C@H](C2)N(c1ccc(N)cc1)CC3 [Compound 6] | 83.1 | moderate to mild inhibitory activity toward TLR-4 | 37.7
CCOC(=O)Nc1ccc(N2CC[C@@]34CCCC[C@@H]3[C@@H]2Cc2ccc(OC)cc24)cc1 [Compound 7] | 79.3 | weak to negligible activity towards TLR-4 | 0
COc1ccc2c(c1)[C@]13CCCC[C@@H]1[C@H](C2)N(c1ccc(NC(=O)CCCc2ccccc2)cc1)CC3 [Compound 8] | 104.7 | weak to negligible activity towards TLR-4 | 6
COc1ccc2c(c1)[C@]13CCCC[C@@H]1[C@H](C2)N(S(=O)(=O)c1ccc([N+](=O)[O-])cc1)CC3 [Compound 9] | 104.1 | moderate to mild inhibitory activity toward TLR-4 | 23.7
COc1ccc2c(c1)[C@]13CCCC[C@@H]1[C@H](C2)N(S(=O)(=O)c1ccc(N)cc1)CC3 [Compound 10] | 111.6 | moderate to mild inhibitory activity toward TLR-4 | 30
COc1ccc2c(c1)[C@]13CCCC[C@@H]1[C@H](C2)N(CC(O)COc1ccccc1)CC3 (stereo partly drawn) [Compound 11] | 88.8 | remarkable inhibitions on TLR-4 | 54.5
COc1ccc2c(c1)[C@]13CCCC[C@@H]1[C@H](C2)N(CC(O)CSc1ccccc1)CC3 (stereo partly drawn) [Compound 12] | 81.3 | remarkable inhibitions on TLR-4 | 59.1
COc1ccc2c(c1)[C@]13CCCC[C@@H]1[C@H](C2)N(CC(O)CN1CCOCC1)CC3 (stereo partly drawn) [Compound 13] | 101.5 | weak to negligible activity towards TLR-4 | 2.8
CC(=O)Nc1ccc(S(=O)(=O)N2CC[C@@]34CCCC[C@@H]3[C@@H]2Cc2ccc(O)cc24)cc1 [Compound 15] | 104.0 | moderate to mild inhibitory activity toward TLR-4 | 45.1
Nc1ccc(S(=O)(=O)N2CC[C@@]34CCCC[C@@H]3[C@@H]2Cc2ccc(O)cc24)cc1 [Compound 16] | 75.5 | moderate to mild inhibitory activity toward TLR-4 | 42.1
Nc1cc(N2CC[C@@]34CCCC[C@@H]3[C@@H]2Cc2ccc(O)cc24)ccc1[N+](=O)[O-] [Compound 17] | 116.0 | remarkable inhibitions on TLR-4 | 53.1
Nc1ccc(N2CC[C@@]34CCCC[C@@H]3[C@@H]2Cc2ccc(O)cc24)cc1N [Compound 18] | 143.0 | remarkable inhibitions on TLR-4 | 57.7
CC(C)N(c1ccc(N2CC[C@@]34CCCC[C@@H]3[C@@H]2Cc2ccc(O)cc24)cc1)C(C)C [Compound 19] | 99.2 | remarkable inhibitions on TLR-4 | 75.3
CC(C)Nc1ccc(N2CC[C@@]34CCCC[C@@H]3[C@@H]2Cc2ccc(O)cc24)cc1 [Compound 20] | 89.9 | strong antagonists of TLR-4 | 99.8
Nc1ccc(N2CC[C@@]34CCCC[C@@H]3[C@@H]2Cc2ccc(O)cc24)c(F)c1 [Compound 21] | 97.4 | weak to negligible activity towards TLR-4 | 13.8
Cc1cc(N2CC[C@@]34CCCC[C@@H]3[C@@H]2Cc2ccc(O)cc24)ccc1N [Compound 22] | 101.7 | remarkable inhibitions on TLR-4 | 64.2
Nc1ccc(N2CC[C@@]34CCCC[C@@H]3[C@@H]2Cc2ccc(O)cc24)c(C(F)(F)F)c1 [Compound 23] | 96.2 | weak to negligible activity towards TLR-4 | 22.9
O=[N+]([O-])c1ccc(N2CC[C@@]34CCCC[C@@H]3[C@@H]2Cc2ccc(O)cc24)nc1 [Compound 24] | 103.3 | moderate to mild inhibitory activity toward TLR-4 | 43.5
Nc1ccc(N2CC[C@@]34CCCC[C@@H]3[C@@H]2Cc2ccc(O)cc24)nc1 [Compound 25] | 100.8 | weak to negligible activity towards TLR-4 | 13.3
